# Test results from patent US10647690B2, “2,3-epoxy succinyl derivative, preparation method and use thereof” (Institute of Pharmacology and Toxicology Academy of …, priority 2016, dated 2020).
# Like-named read-outs stand apart in the source and are kept apart here.
# Biological target: T1, Cathepsin K (Homo sapiens, UniProt P43235)
# T1 construct: purchased Biovision K150-100
# T1 sequence (P43235 115-329): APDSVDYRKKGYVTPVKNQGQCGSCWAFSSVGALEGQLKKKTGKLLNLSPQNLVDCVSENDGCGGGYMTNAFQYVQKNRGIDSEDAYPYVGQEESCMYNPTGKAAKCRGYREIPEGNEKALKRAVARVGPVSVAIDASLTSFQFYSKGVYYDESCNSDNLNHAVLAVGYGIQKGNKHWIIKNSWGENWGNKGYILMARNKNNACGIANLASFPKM
# Test: Preliminary screening of Cathepsin K (Cathepsin K Inhibitor Screening Kit K150-100, Biovision)
# Format: biochemical
# Conditions: relative inhibition rate vs 10 μM FF-FMK control
# Procedure: 1. Method for preliminary screening of Cathepsin K:
# Preliminary screening of Cathepsin K was performed by using Cathepsin K Inhibitor Screening Kit (Product No. K150-100) from Biovision Company.
# 1.1.1 Preparation of Cathepsin K enzyme solution: Cathepsin K enzyme (40 μl) and Cathepsin K reagent (80 μl) were added to Cathepsin K buffer (3.88 ml), and were mixed well, to prepare Cathepsin K enzyme solution with a volume of 4 ml, which was placed on ice for further use.
# 1.1.2 Preparation of a compound solution: different compounds were separately weighed and dissolved in DMSO (methyl sulfoxide), to prepare solutions at a concentration of 30 mM as stock solutions, and for some insoluble compounds, they were prepared into solutions at a concentration of 10 mM as stock solutions; the 30 mM and 10 mM compound stock solutions were diluted to 1 mM and 100 μM DMSO solutions, respectively; 1 mM and 100 μM compound DMSO solutions (2 μl) were separately added to CTSK buffer (18 μl), to prepare compound solutions at a final concentration of 100 μM and 10 μM, respectively, wherein the concentration of DMSO was 10%.
# 1.1.3 Preparation of Cathepsin K substrate solution: Cathepsin K substrate (160 μl) was added to Cathepsin K buffer (3.44 ml), and mixed homogeneously, to prepare Cathepsin K substrate solution with a volume of 3.6 ml, which was placed on ice for further use.
# 1.2 Method for screening Cathepsin K inhibitor: Cathepsin K enzyme solution (prepared in Item 1.1.1) was added to a 384-well plate (ProxiPlate-384 Plus, Perkinelmer) at 10 μl/well, and centrifuged at 1000 rpm for 1 min; the compound solution (prepared in Item 1.1.2) was then added at 2 µl/well, and centrifuged at 1000 rpm for 1 min, and every concentration was repeated in two wells; the plate was placed in a 25° C. incubator for 15 min; Cathepsin K substrate solution was then added at 8 μl/well, and centrifuged at 1000 rpm for 1 min; and finally, the fluorescence signal was read in Enspire, wherein the exciting light was at a wavelength of 400 nm, the emitting light was at a wavelength of 505 nm, and continuous reading was performed at 37° C. for 120 min.
# 1.3 Data analysis: the slope (S) for all the samples was calculated by ΔRFU (RFU2−RFU1) and time ΔT (T2−T1), including negative control (Enzyme Control, EC) and positive control (Inhibitor Control, IC: 10 μM FF-FMK), and the calculation formula was as followed: Relative inhibition rate %=(SEC−SS)/(SEC−SIC)*100.
# [1] = 1 μM compound, replicate 1, read-out: Inhibition % (1 μM) replicate 1
# [2] = 1 μM compound, replicate 2, read-out: Inhibition % (1 μM) replicate 2
# [3] = 10 μM compound, replicate 1, read-out: Inhibition % (10 μM) replicate 1
# [4] = 10 μM compound, replicate 2, read-out: Inhibition % (10 μM) replicate 2
Structure (SMILES),inhibition at 1 µM [1] [%],inhibition at 1 µM [2] [%],inhibition at 10 µM [3] [%],inhibition at 10 µM [4] [%],"Inhibition % (1 μM) replicate 1 (1 μM compound, replicate 1) [%]","Inhibition % (1 μM) replicate 2 (1 μM compound, replicate 2) [%]","Inhibition % (10 μM) replicate 1 (10 μM compound, replicate 1) [%]","Inhibition % (10 μM) replicate 2 (10 μM compound, replicate 2) [%]"
"CCCC(C)NC(=O)[C@H](CCSC)NC(=O)[C@H]1O[C@@H]1C(=O)OCC (some centres unmarked) [Compound 6, (2s, 3s)-2-ethoxycarbonyl-3-[2-[(s)-4-methylthio-1-carbonyl-1-(1-methylbutylamino)butane]formylamino]epoxysuccinic acid]",31.6,36.6,33,39.1,–,–,–,–
"CCOC(=O)[C@H]1O[C@@H]1C(=O)N[C@@H](CCSC)C(=O)NCCC(C)C [Compound 1, (2s, 3s)-2-ethoxycarbonyl-3-[2-[(s)-4-methylthio-1-carbonyl-1-(isopentylamino)butane]formylamino]epoxysuccinic acid]",–,–,–,–,17.79,20.59,41.60,47.08
"CCOC(=O)[C@H]1O[C@@H]1C(=O)N[C@@H](CCSC)C(=O)NCC(C)C [Compound 9, (2s, 3s)-2-ethoxycarbonyl-3-[2-[(s)-4-methylthio-1-carbonyl-1-(isobutylamino)butane]formylamino]epoxysuccinic acid]",25.6,18.1,29.2,28.8,–,–,–,–
"CCOC(=O)[C@H]1O[C@@H]1C(=O)N[C@@H](CCSC)C(=O)NCC(C)CC (some centres unmarked) [Compound 3, (2s, 3s)-2-ethoxycarbonyl-3-[2-[(s)-4-methylthio-1-carbonyl-1-(2-methylbutylamino)butane]formylamino]epoxysuccinic acid]",31,16.6,42,36.7,–,–,–,–
"CCOC(=O)[C@H]1O[C@@H]1C(=O)N[C@@H](CCSC)C(=O)N1CCCC(C)C1 (some centres unmarked) [Compound 7, (2s, 3s)-2-ethoxycarbonyl-3-[2-[(s)-4-methylthio-1-carbonyl-1-(3-methylpiperidinyl)butane]formylamino]epoxysuccinic acid]",33,-19.6,37.4,28.4,–,–,–,–

# Continued, values first:
inhibition at 1 µM [1] [%],inhibition at 1 µM [2] [%],inhibition at 10 µM [3] [%],inhibition at 10 µM [4] [%],"Inhibition % (1 μM) replicate 1 (1 μM compound, replicate 1) [%]","Inhibition % (1 μM) replicate 2 (1 μM compound, replicate 2) [%]","Inhibition % (10 μM) replicate 1 (10 μM compound, replicate 1) [%]","Inhibition % (10 μM) replicate 2 (10 μM compound, replicate 2) [%]",Structure (SMILES)
37.5,38.7,36.2,40.6,–,–,–,–,CCOC(=O)[C@H]1O[C@@H]1C(=O)N[C@@H](CCSC)C(=O)NC(C)CC (some centres unmarked) [Compound 32]
33.1,29.9,67.2,53,–,–,–,–,"CCOC(=O)[C@H]1O[C@@H]1C(=O)N[C@@H](CSCc1ccccc1)C(=O)NCCc1ccc(C)cc1 [Compound 21, (2s, 3s)-2-ethoxycarbonyl-3-[2-[(s)-3-benzylthio-1-carbonyl-1-(p-methylphenylethylamino)propane]formylamino]epoxysuccinic acid]"
26.9,32.2,34.8,31.7,–,–,–,–,"CCCNC(=O)[C@H](CSCc1ccccc1)NC(=O)[C@H]1O[C@@H]1C(=O)OCC [Compound 17, (2s, 3s)-2-ethoxycarbonyl-3-[2-[(s)-3-benzylthio-1-carbonyl-1-(propylamino)propane]formylamino]epoxysuccinic acid]"
31.6,26.9,29.6,31.7,–,–,–,–,"CCOC(=O)[C@H]1O[C@@H]1C(=O)N[C@@H](CCSC)C(=O)NCC(C)(C)C [Compound 30, (2s, 3s)-2-ethoxycarbonyl-3-[2-[(s)-4-methylthio-1-carbonyl-1-(neopentylamino)butane]formylamino]epoxysuccinic acid]"
38.9,39.2,60.8,63.6,–,–,–,–,"CCOC(=O)[C@H]1O[C@@H]1C(=O)N[C@@H](CSCc1ccccc1)C(=O)NC(C)(C)CC [Compound 16, (2s, 3s)-2-ethoxycarbonyl-3-[2-[(s)-3-benzylthio-1-carbonyl-1-(tert-pentylamino)propane]formylamino]epoxysuccinic acid]"
16,-4.45,29.7,19.5,–,–,–,–,"CCOC(=O)[C@H]1O[C@@H]1C(=O)N[C@@H](CSCc1ccccc1)C(=O)N1CCCC1 [Compound 22, (2s, 3s)-2-ethoxycarbonyl-3-[2-[(s)-3-benzylthio-1-carbonyl-1-(tetrahydropyrrolyl)propane]formylamino]epoxysuccinic acid]"
